Target: T1, purified human HDAC6 (Homo sapiens, UniProt Q9UBN7)
T1 construct: purchased BPS Bioscience 5006
T1 sequence (Q9UBN7 1-1215): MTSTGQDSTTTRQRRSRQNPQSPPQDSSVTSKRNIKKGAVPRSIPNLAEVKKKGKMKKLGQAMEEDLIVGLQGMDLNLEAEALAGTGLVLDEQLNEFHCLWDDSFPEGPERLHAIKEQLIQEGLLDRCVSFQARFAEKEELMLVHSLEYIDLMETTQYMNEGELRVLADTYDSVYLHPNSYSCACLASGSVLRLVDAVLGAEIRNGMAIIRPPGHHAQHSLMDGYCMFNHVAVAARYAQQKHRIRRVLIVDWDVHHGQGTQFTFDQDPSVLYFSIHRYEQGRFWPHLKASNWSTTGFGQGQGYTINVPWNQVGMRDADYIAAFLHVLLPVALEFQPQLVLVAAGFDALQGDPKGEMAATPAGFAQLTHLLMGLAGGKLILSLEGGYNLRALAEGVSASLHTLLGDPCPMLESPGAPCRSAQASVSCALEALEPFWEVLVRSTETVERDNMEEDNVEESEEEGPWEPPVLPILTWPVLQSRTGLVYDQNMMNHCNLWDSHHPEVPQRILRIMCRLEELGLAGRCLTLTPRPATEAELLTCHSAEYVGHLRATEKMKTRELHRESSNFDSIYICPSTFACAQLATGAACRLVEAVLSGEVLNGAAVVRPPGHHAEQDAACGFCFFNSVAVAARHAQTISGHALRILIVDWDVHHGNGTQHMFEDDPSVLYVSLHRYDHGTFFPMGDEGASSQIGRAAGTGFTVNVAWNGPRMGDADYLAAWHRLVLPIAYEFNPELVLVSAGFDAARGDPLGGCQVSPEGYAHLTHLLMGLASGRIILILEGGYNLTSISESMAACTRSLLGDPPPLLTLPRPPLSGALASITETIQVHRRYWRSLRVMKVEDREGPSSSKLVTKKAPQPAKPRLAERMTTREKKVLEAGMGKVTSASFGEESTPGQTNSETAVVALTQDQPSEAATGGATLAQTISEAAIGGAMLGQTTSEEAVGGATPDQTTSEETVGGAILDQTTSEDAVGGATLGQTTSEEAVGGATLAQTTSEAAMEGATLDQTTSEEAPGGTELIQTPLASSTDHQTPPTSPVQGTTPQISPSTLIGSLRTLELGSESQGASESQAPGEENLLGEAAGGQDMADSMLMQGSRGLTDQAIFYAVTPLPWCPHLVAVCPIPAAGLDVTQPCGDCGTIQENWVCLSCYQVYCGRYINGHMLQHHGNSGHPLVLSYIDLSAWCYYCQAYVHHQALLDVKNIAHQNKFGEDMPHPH
Experiment: HDAC6 Enzyme Assay
Format: biochemical
Conditions: compound concentration 0.37 μM, read-out: Percent Inhibition
Method in brief: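 Readout is AMC fluorescence (Ex 340 nm, Em 460 nm) after trypsin cleavage of the deacetylated Ac-Arg-Gly-Lys(Ac)-AMC product. Reaction: purified human HDAC6, compound or vehicle, 1 hour, 30° C, quenched by trichostatin A. Single-concentration percent inhibition or IC50 calculated versus DMSO-treated samples.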

Structure (SMILES)	inhibition at 0.37 µM
Nc1cccc(-c2cccc(CCn3cnc4ccc(C(=O)NO)cc4c3=O)c2)c1 [Compound I-322, 3-[2-(3′-aminobiphenyl-3-yl)ethyl]-N-hydroxy-4-oxo-3,4-dihydroquinazoline-6-carboxamide]	76.1%
Cc1ccccc1Cc1nc2cc(C(=O)NO)ccc2c(=O)[nH]1 [Compound I-406, N-hydroxy-2-(2-methylbenzyl)-4-oxo-3,4-dihydroquinazoline-7-carboxamide]	86.6%
O=C(NO)c1ccc2c(=O)[nH]c(-c3ccc4ccccc4c3)nc2c1 [Compound I-405, N-hydroxy-2-(2-naphthyl)-4-oxo-3,4-dihydroquinazoline-7-carboxamide]	92%
O=C(NO)c1ccc2ncn(Cc3cccc(N4CCOCC4)c3)c(=O)c2c1 [Compound I-114, N-hydroxy-3-(3-morpholin-4-ylbenzyl)-4-oxo-3,4-dihydroquinazoline-6-carboxamide]	93.8%
CC(=O)Nc1ccc(-c2cccc(Cn3cnc4ccc(C(=O)NO)cc4c3=O)c2)cc1 [Compound I-80, 3-{[4′-(acetylamino)biphenyl-3-yl]methyl}-N-hydroxy-4-oxo-3,4-dihydroquinazoline-6-carboxamide]	86.7%
O=C(NO)c1ccc2ccn(-c3ccnc(NC(=O)C4CC4)c3)c(=O)c2c1 [Compound I-397, 2-{2-[(cyclopropylcarbonyl)amino]pyridin-4-yl}-N-hydroxy-1-oxo-1,2-dihydroisoquinoline-7-carboxamide]	96.3%
O=C(NO)c1ccc2ncn(CCc3cccc(-c4cc(Cl)cc(Cl)c4)c3)c(=O)c2c1 [Compound I-345, 3-[2-(3′,5′-dichlorobiphenyl-3-yl)ethyl]-N-hydroxy-4-oxo-3,4-dihydroquinazoline-6-carboxamide]	81.9%
Cc1ccc(Cc2nc3cc(C(=O)NO)ccc3c(=O)[nH]2)c(C)c1 [Compound I-417, 2-(2,4-dimethylbenzyl)-N-hydroxy-4-oxo-3,4-dihydroquinazoline-7-carboxamide]	56.7%
Cc1ncc(-c2nc3cc(C(=O)NO)ccc3c(=O)n2Cc2ccc(C(F)(F)F)cc2)n1C [Compound I-138, 2-(1,2-dimethyl-1H-imidazol-5-yl)-N-hydroxy-4-oxo-3-[4-(trifluoromethyl)benzyl]-3,4-dihydroquinazoline-7-carboxamide]	80.2%
O=C(NO)c1ccc2ccn(Cc3cccc(-n4cc5ccccc5n4)c3)c(=O)c2c1 [Compound I-308, N-hydroxy-2-[3-(2H-indazol-2-yl)benzyl]-1-oxo-1,2-dihydroisoquinoline-7-carboxamide]	97.9%
O=C(NO)c1ccc2ncn(CCc3cccc(-c4cccc(Cl)c4)c3)c(=O)c2c1 [Compound I-316, 3-[2-(3′-chlorobiphenyl-3-yl)ethyl]-N-hydroxy-4-oxo-3,4-dihydroquinazoline-6-carboxamide]	87.7%

Same assay, conditions: compound concentration 0.412 μM, read-out: Percent Inhibition

Structure (SMILES)	inhibition at 0.412 µM
O=C(NO)c1ccc2ccn(CCOc3ccc(-n4ccnc4)cc3)c(=O)c2c1 [Compound I-271, N-hydroxy-2-{2-[4-(1H-imidazol-1-yl)phenoxy]ethyl}-1-oxo-1,2-dihydroisoquinoline-7-carboxamide]	96.9%
COc1ccc(CCCn2ccc3ccc(C(=O)NO)cc3c2=O)cc1 [Compound I-140, N-hydroxy-2-[3-(4-methoxyphenyl)propyl]-1-oxo-1,2-dihydroisoquinoline-7-carboxamide]	96.5%
Cc1ccccc1Cn1ccc2ccc(C(=O)NO)cc2c1=O [Compound I-157, N-hydroxy-2-(2-methylbenzyl)-1-oxo-1,2-dihydroisoquinoline-7-carboxamide]	94.8%
NC(=O)CCn1ccc2ccc(C(=O)NO)cc2c1=O [Compound I-250, 2-(3-amino-3-oxopropyl)-N-hydroxy-1-oxo-1,2-dihydroisoquinoline-7-carboxamide]	77%
O=C(NO)c1ccc2ccn(CCCOCc3ccccc3)c(=O)c2c1 [Compound I-163, 2-[3-(benzyloxy)propyl]-N-hydroxy-1-oxo-1,2-dihydroisoquinoline-7-carboxamide]	92.5%
Cc1ccn(CCn2cnc3ccc(C(=O)NO)cc3c2=O)n1 [Compound I-57, N-hydroxy-3-[2-(3-methyl-1H-pyrazol-1-yl)ethyl]-4-oxo-3,4-dihydroquinazoline-6-carboxamide]	77.4%
O=C(NO)c1ccc2ccn(CCCOc3ccc(-n4ccnc4)cc3)c(=O)c2c1 [Compound I-129, N-hydroxy-2-{3-[4-(1H-imidazol-1-yl)phenoxy]propyl}-1-oxo-1,2-dihydroisoquinoline-7-carboxamide]	96.3%
O=C(Cn1cnc2ccc(C(=O)NO)cc2c1=O)c1ccc(N2CCCC2)cc1 [Compound I-273, N-hydroxy-4-oxo-3-[2-oxo-2-(4-pyrrolidin-1-ylphenyl)ethyl]-3,4-dihydroquinazoline-6-carboxamide]	85.1%
CC(C)C(Cn1ccc2ccc(C(=O)NO)cc2c1=O)c1ccccc1 (stereo not shown) [Compound I-141, N-hydroxy-2-(3-methyl-2-phenylbutyl)-1-oxo-1,2-dihydroisoquinoline-7-carboxamide]	90.5%
CCC(CC)Cn1ccc2ccc(C(=O)NO)cc2c1=O [Compound I-130, 2-(2-ethylbutyl)-N-hydroxy-1-oxo-1,2-dihydroisoquinoline-7-carboxamide]	93%
O=C(NO)c1ccc2ccn(Cc3cc(C(F)(F)F)ccc3C(F)(F)F)c(=O)c2c1 [Compound I-217, 2-[2,5-bis(trifluoromethyl)benzyl]-N-hydroxy-1-oxo-1,2-dihydroisoquinoline-7-carboxamide]	99.4%
Cc1nc2cc(C(=O)NO)ccc2c(=O)n1C [Compound I-132, N-hydroxy-2,3-dimethyl-4-oxo-3,4-dihydroquinazoline-7-carboxamide]	59.8%
O=C(NO)c1ccc2ccn(Cc3cccc(Cl)c3)c(=O)c2c1 [Compound I-206, 2-(3-chlorobenzyl)-N-hydroxy-1-oxo-1,2-dihydroisoquinoline-7-carboxamide]	95.8%
O=C(NO)c1ccc2ccn(CCOc3ccc(-c4csnn4)cc3)c(=O)c2c1 [Compound I-189, N-hydroxy-1-oxo-2-{2-[4-(1,2,3-thiadiazol-4-yl)phenoxy]ethyl}-1,2-dihydroisoquinoline-7-carboxamide]	97.2%
O=C(NO)c1ccc2ccn(CCc3ccc(Cl)cc3)c(=O)c2c1 [Compound I-236, 2-[2-(4-chlorophenyl)ethyl]-N-hydroxy-1-oxo-1,2-dihydroisoquinoline-7-carboxamide]	96.2%
O=C(NO)c1ccc2ccn(CCOc3cc(Cl)cc(Cl)c3)c(=O)c2c1 [Compound I-99, 2-[2-(3,5-dichlorophenoxy)ethyl]-N-hydroxy-1-oxo-1,2-dihydroisoquinoline-7-carboxamide]	93%
O=C(NO)c1ccc2ccn(CCOc3cccc4c3CCC4)c(=O)c2c1 [Compound I-196, 2-[2-(2,3-dihydro-1H-inden-4-yloxy)ethyl]-N-hydroxy-1-oxo-1,2-dihydroisoquinoline-7-carboxamide]	95.2%
O=C(NO)c1ccc2ccn(Cc3ccc(F)cc3F)c(=O)c2c1 [Compound I-222, 2-(2,4-difluorobenzyl)-N-hydroxy-1-oxo-1,2-dihydroisoquinoline-7-carboxamide]	94.6%
O=C(NO)c1ccc2ccn(CCNS(=O)(=O)c3ccc(Cl)cc3)c(=O)c2c1 [Compound I-213, 2-(2-{[(4-chlorophenyl)sulfonyl]amino}ethyl)-N-hydroxy-1-oxo-1,2-dihydroisoquinoline-7-carboxamide]	94%
O=C(NO)c1ccc2ncn(CCOc3ccccc3)c(=O)c2c1 [Compound I-180, N-hydroxy-4-oxo-3-(2-phenoxyethyl)-3,4-dihydroquinazoline-6-carboxamide]	97%

Reference: patent US8765773B2, “Substituted hydroxamic acids and uses thereof” (Millennium Pharmaceuticals, Inc., priority 2010, dated 2014)
